According to patent US8999940B2 (Ipsen Pharma S.A.S., priority 2008, dated 2015):
[ ]: non-standard residue; d: D form. Tyr(3-Cl) = N[C@@H](Cc1ccc(O)c(Cl)c1)C(=O)O; Nle = CCCC[C@H](N)C(=O)O; Ac5c = NC1(C(=O)O)CCCC1; Aib = CC(C)(N)C(=O)O

What was measured:
[1] = target: T1, human recombinant GIP receptor (Homo sapiens, UniProt P48546); test: In vitro hGIP receptor binding assay
T1 construct: expressed in transfected cells; host or cells: CHO-K1 clonal cells (membrane preparation)
T1 sequence (P48546 22-466): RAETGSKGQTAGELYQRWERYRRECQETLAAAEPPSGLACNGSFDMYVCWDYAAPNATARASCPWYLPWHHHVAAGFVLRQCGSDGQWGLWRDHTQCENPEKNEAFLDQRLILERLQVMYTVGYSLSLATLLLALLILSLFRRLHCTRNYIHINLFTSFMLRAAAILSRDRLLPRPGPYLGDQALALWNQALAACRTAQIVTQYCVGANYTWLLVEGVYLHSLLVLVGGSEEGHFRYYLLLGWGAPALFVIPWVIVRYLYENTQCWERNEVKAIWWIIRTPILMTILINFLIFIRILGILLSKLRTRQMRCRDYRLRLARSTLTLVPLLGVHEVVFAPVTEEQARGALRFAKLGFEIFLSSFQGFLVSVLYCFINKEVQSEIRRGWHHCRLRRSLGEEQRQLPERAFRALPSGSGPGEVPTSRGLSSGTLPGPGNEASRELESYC
Method: A. In Vitro hGIP Receptor Binding Assay […] The incubations were terminated by rapid filtration through GF/C filters (pre-soaked in 0.5% polyethylenimine) using a Brandel filtration manifold. Each tube and filter were then washed three times with 5-ml aliquots of ice-cold buffer.

[2] = Human plasma half-life assay; type: in vitro ADME; conditions: 37° C., LC-MS, read-out: Human Plasma T½ (converted)
[3] = test system: insulin secretion; test: Determination of in vivo insulin secretion in normal rats; conditions: fasted male Sprague Dawley rats, compound iv with glucose (1 g/kg), plasma insulin up to 20 minutes post-glucose
Method: D. Determination of in vivo Insulin Secretion in Normal Rats Male Sprague Dawley rats with a body weight of approximately 275-300 g were used as experimental subjects. The day prior to the treatment, right atrial cannulae were implanted via the jugular vein under chlorohydrate. Each cannula was filled with 100 u/ml heparin saline and tied. […] The day of the experiment, aliquots of compound were thawed, brought to room temperature and vortexed thoroughly. […] At time 0, a 500 μl blood sample was withdrawn through the cannula. Next, either the vehicle or the appropriate dose of the compound was injected into the cannula and pushed in with the glucose (1 g/kg) or vehicle solution. Finally, 500 μl of volume of heparinized saline (10 u/ml) was used to push in the remaining glucose through the cannula. […] The plasma was collected from the blood samples by centrifugation, and stored at −20° C. until assay for insulin content.

[4] = Rat plasma half-life assay; type: in vitro ADME; conditions: 37° C., LC-MS, read-out: Rat Plasma T½ (converted)

| Compound | Ki [1] | half-life at 0.1 mg/ml [2] | AUC (total insulin secretion) [3] | half-life at 0.1 mg/ml [4] |
| --- | --- | --- | --- | --- |
| CC[C@H](C)[C@H](NC(=O)[C@H](CCCCN)NC(=O)[C@H](CC(=O)O)NC(=O)[C@H](CCSC)NC(=O)[C@H](C)NC(=O)[C@@H](NC(=O)C1(NC(=O)[C@H](Cc2ccc(O)cc2)NC(=O)[C@H](CC(=O)O)NC(=O)[C@H](CO)NC(=O)[C@@H](NC(=O)[C@H](Cc2ccccc2)NC(=O)[C@@H](NC(=O)CNC(=O)[C@H](CCC(=O)O)NC(=O)C(C)(C)NC(=O)[C@@H](N)Cc2ccc(O)c(OC)c2)[C@@H](C)O)[C@@H](C)CC)CCCC1)[C@@H](C)CC)C(=O)N[C@@H](Cc1c[nH]cn1)C(=O)N[C@@H](CCC(N)=O)C(=O)N[C@@H](CCC(N)=O)C(=O)N[C@@H](CC(=O)O)C(=O)N[C@@H](Cc1ccccc1)C(=O)N[C@H](C(=O)N[C@@H](CC(N)=O)C(=O)N[C@@H](Cc1c[nH]c2ccccc12)C(=O)N[C@@H](CC(C)C)C(=O)N[C@@H](CC(C)C)C(=O)N[C@@H](C)C(=O)N[C@@H](CCC(N)=O)C(=O)N[C@@H](CCCCN)C(=O)NCC(=O)N[C@@H](CCCCN)C(=O)N[C@@H](CCCCN)C(=O)N[C@@H](CC(N)=O)C(=O)N[C@@H](CC(=O)O)C(=O)N[C@@H](Cc1c[nH]c2ccccc12)C(=O)N[C@@H](CCCCN)C(=O)N[C@@H](Cc1c[nH]cn1)C(=O)N[C@@H](CC(N)=O)C(=O)N[C@H](C(=O)NC1(C(=O)N[C@@H](CCC(N)=O)C(=O)O)CCCC1)[C@@H](C)CC)C(C)C [Example 28, (3MeO-Tyr^1, Aib^2, A5c^11, 41)hGIP(1-42)-OH] | 1.24 nM | > 57 h | 92.88 | 10 h |
| H-[Tyr(3-Cl)][Aib]EGTFISDY[Ac5c]IA[Nle]DKIHQQDFVNWLLAQKGKKNDWKHNITQ-OH [Example 14, (3Cl-Tyr^1, Aib^2, A5c^11, Nle^14)hGIP(1-42)-OH] | 0.42 nM | 52.1 h | 189.54 | 27.4 h |
| CC[C@H](C)[C@H](NC(=O)[C@H](CCCCN)NC(=O)[C@H](CC(=O)O)NC(=O)C1(NC(=O)[C@H](C)NC(=O)[C@@H](NC(=O)C2(NC(=O)[C@H](Cc3ccc(O)cc3)NC(=O)[C@H](CC(=O)O)NC(=O)[C@H](CO)NC(=O)[C@@H](NC(=O)[C@H](Cc3ccccc3)NC(=O)[C@@H](NC(=O)CNC(=O)[C@H](CCC(=O)O)NC(=O)C(C)(C)NC(=O)[C@@H](N)Cc3ccc(O)c(OC)c3)[C@@H](C)O)[C@@H](C)CC)CCCC2)[C@@H](C)CC)CCCC1)C(=O)N[C@@H](Cc1c[nH]cn1)C(=O)N[C@@H](CCC(N)=O)C(=O)N[C@@H](CCC(N)=O)C(=O)N[C@@H](CC(=O)O)C(=O)N[C@@H](Cc1ccccc1)C(=O)N[C@H](C(=O)N[C@@H](CC(N)=O)C(=O)N[C@@H](Cc1c[nH]c2ccccc12)C(=O)N[C@@H](CC(C)C)C(=O)N[C@@H](CC(C)C)C(=O)N[C@@H](C)C(=O)N[C@@H](CCC(N)=O)C(=O)N[C@@H](CCCCN)C(=O)NCC(=O)N[C@@H](CCCCN)C(=O)N[C@@H](CCCCN)C(=O)N[C@@H](CC(N)=O)C(=O)N[C@@H](CC(=O)O)C(=O)N[C@@H](Cc1c[nH]c2ccccc12)C(=O)N[C@@H](CCCCN)C(=O)N[C@@H](Cc1c[nH]cn1)C(=O)N[C@@H](CC(N)=O)C(=O)N[C@H](C(=O)N[C@H](C(=O)N[C@@H](CCC(N)=O)C(=O)N[C@@H](Cc1c[nH]cn1)C(=O)O)[C@@H](C)O)[C@@H](C)CC)C(C)C [Example 74, (3MeO-Tyr^1, Aib^2, A5c^11, 14, His^43)hGIP(1-43)-OH] | 9.34 nM | > 50 h |  | 12.8 h |
| CCCC[C@H](NC(=O)[C@H](C)NC(=O)[C@@H](NC(=O)C1(NC(=O)[C@H](Cc2ccc(O)cc2)NC(=O)[C@H](CC(=O)O)NC(=O)[C@H](CO)NC(=O)[C@@H](NC(=O)[C@H](Cc2ccccc2)NC(=O)[C@@H](NC(=O)CNC(=O)[C@H](CCC(=O)O)NC(=O)C(C)(C)NC(=O)[C@@H](N)Cc2cc(F)c(F)c(F)c2)[C@@H](C)O)[C@@H](C)CC)CCCC1)[C@@H](C)CC)C(=O)N[C@@H](CC(=O)O)C(=O)N[C@@H](CCCCN)C(=O)N[C@H](C(=O)N[C@@H](Cc1c[nH]cn1)C(=O)N[C@@H](CCC(N)=O)C(=O)N[C@@H](CCC(N)=O)C(=O)N[C@@H](CC(=O)O)C(=O)N[C@@H](Cc1ccccc1)C(=O)N[C@H](C(=O)N[C@@H](CC(N)=O)C(=O)N[C@@H](Cc1c[nH]c2ccccc12)C(=O)N[C@@H](CC(C)C)C(=O)N[C@@H](CC(C)C)C(=O)N[C@@H](C)C(=O)N[C@@H](CCC(N)=O)C(=O)N[C@@H](CCCCN)C(=O)NCC(=O)N[C@@H](CCCCN)C(=O)N[C@@H](CCCCN)C(=O)N[C@@H](CC(N)=O)C(=O)N[C@@H](CC(=O)O)C(=O)N[C@@H](Cc1c[nH]c2ccccc12)C(=O)N[C@@H](CCCCN)C(=O)N[C@@H](Cc1c[nH]cn1)C(=O)N[C@@H](CC(N)=O)C(=O)N[C@H](C(=O)N[C@H](C(=O)N[C@@H](CCC(N)=O)C(=O)O)[C@@H](C)O)[C@@H](C)CC)C(C)C)[C@@H](C)CC [Example 22, (3,4,5F-Phe^1, Aib^2, A5c^11, Nle^14)hGIP(1-42)-OH] | 31.1 nM | > 74 h |  | 69.3 h |
| CCCC[C@H](NC(=O)C(C)(C)NC(=O)[C@@H](NC(=O)[C@H](CO)NC(=O)[C@H](Cc1ccc(O)cc1)NC(=O)[C@H](CC(=O)O)NC(=O)[C@H](CO)NC(=O)[C@@H](NC(=O)[C@H](Cc1ccccc1)NC(=O)[C@@H](NC(=O)CNC(=O)[C@H](CCC(=O)O)NC(=O)C(C)(C)NC(=O)[C@@H](N)Cc1c[nH]cn1)[C@@H](C)O)[C@@H](C)CC)[C@@H](C)CC)C(=O)N[C@@H](CC(=O)O)C(=O)N[C@@H](CCCCN)C(=O)N[C@H](C(=O)N[C@@H](Cc1c[nH]cn1)C(=O)N[C@@H](CCC(N)=O)C(=O)N[C@@H](CCC(N)=O)C(=O)N[C@@H](CC(=O)O)C(=O)N[C@@H](Cc1ccccc1)C(=O)N[C@H](C(=O)N[C@@H](CC(N)=O)C(=O)N[C@@H](Cc1c[nH]c2ccccc12)C(=O)N[C@@H](CC(C)C)C(=O)N[C@@H](CC(C)C)C(=O)N[C@@H](C)C(=O)N[C@@H](CCC(N)=O)C(=O)N[C@@H](CCCCN)C(=O)NCC(=O)N[C@@H](CCCCN)C(=O)N[C@@H](CCCCN)C(=O)N[C@@H](CC(N)=O)C(=O)N[C@@H](CC(=O)O)C(=O)N[C@@H](Cc1c[nH]c2ccccc12)C(=O)N[C@@H](CCCCN)C(=O)N[C@@H](Cc1c[nH]cn1)C(=O)N[C@@H](CC(N)=O)C(=O)N[C@H](C(=O)N[C@H](C(=O)N[C@@H](CCC(N)=O)C(=O)O)[C@@H](C)O)[C@@H](C)CC)C(C)C)[C@@H](C)CC [Example 10, (His^1, Aib^2, 13, Nle^14)hGIP(1-42)-OH] | 3.33 nM | 71.4 h |  | 9.2 h |
| CCCC[C@H](NC(=O)[C@H](C)NC(=O)[C@@H](NC(=O)C1(NC(=O)[C@H](Cc2ccc(O)cc2)NC(=O)[C@H](CC(=O)O)NC(=O)[C@H](CO)NC(=O)[C@@H](NC(=O)[C@H](Cc2ccccc2)NC(=O)[C@@H](NC(=O)CNC(=O)[C@H](CCC(=O)O)NC(=O)C(C)(C)NC(=O)[C@@H](N)Cc2c(C)cc(O)cc2C)[C@@H](C)O)[C@@H](C)CC)CCCC1)[C@@H](C)CC)C(=O)N[C@@H](CC(=O)O)C(=O)N[C@@H](CCCCN)C(=O)N[C@H](C(=O)N[C@@H](Cc1c[nH]cn1)C(=O)N[C@@H](CCC(N)=O)C(=O)N[C@@H](CCC(N)=O)C(=O)N[C@@H](CC(=O)O)C(=O)N[C@@H](Cc1ccccc1)C(=O)N[C@H](C(=O)N[C@@H](CC(N)=O)C(=O)N[C@@H](Cc1c[nH]c2ccccc12)C(=O)N[C@@H](CC(C)C)C(=O)N[C@@H](CC(C)C)C(=O)N[C@@H](C)C(=O)N[C@@H](CCC(N)=O)C(=O)N[C@@H](CCCCN)C(=O)NCC(=O)N[C@@H](CCCCN)C(=O)N[C@@H](CCCCN)C(=O)N[C@@H](CC(N)=O)C(=O)N[C@@H](CC(=O)O)C(=O)N[C@@H](Cc1c[nH]c2ccccc12)C(=O)N[C@@H](CCCCN)C(=O)N[C@@H](Cc1c[nH]cn1)C(=O)N[C@@H](CC(N)=O)C(=O)N[C@H](C(=O)N[C@H](C(=O)N[C@@H](CCC(N)=O)C(=O)N[C@@H](Cc1c[nH]cn1)C(=O)O)[C@@H](C)O)[C@@H](C)CC)C(C)C)[C@@H](C)CC [Example 55, (2,6Me-Tyr^1, Aib^2, A5c^11, Nle^14, His^43)hGIP(1-43)-OH] | 39 nM | 37.7 h |  | 16.1 h |
